Source: ChEMBL document CHEMBL1201862, “PubChem BioAssay data set” (2004)
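These data come from cells grown in 96-well plates and exposed to compound for 48 hours at five concentrations. The concentration for 50% growth inhibition is given as GI50.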 Activity calls are given as the source filed them. No stated cut-off is given here; in the data, active = GI50 up to about 1.1 µM and inactive = higher.

Experiments:
Assay in all cases: DTP human tumour cell line panel, 48 h
[1] = tested on: SW-620
[2] = tested on: BT-549
[3] = tested on: HOP-62
[4] = tested on: HCC 2998
[5] = tested on: OVCAR-5
[6] = tested on: K562
[7] = tested on: EKVX
[8] = tested on: HCT-15
[9] = tested on: HL-60
[10] = tested on: SF-539
[11] = tested on: UO-31
[12] = tested on: NCI-H522
[13] = tested on: MDA-MB-231
[14] = tested on: MCF7
[15] = tested on: NCI/ADR-RES
[16] = tested on: Hs-578T
[17] = tested on: SNB-75
[18] = tested on: NCI-H226
[19] = tested on: SK-MEL-5
[20] = tested on: HOP-92

| Structure (SMILES) | GI50 [1] | GI50 [2] | GI50 [3] | GI50 [4] | GI50 [5] | GI50 [6] | GI50 [7] | GI50 [8] [µM] | GI50 [9] | GI50 [10] | GI50 [11] | GI50 [12] | GI50 [13] | GI50 [14] | GI50 [15] | GI50 [16] | GI50 [17] | GI50 [18] | GI50 [19] | GI50 [20] |
| --- | --- | --- | --- | --- | --- | --- | --- | --- | --- | --- | --- | --- | --- | --- | --- | --- | --- | --- | --- | --- |
| N=C(N)NNC(=O)C(=O)O | > 100 µM (inactive) | > 100 µM (inactive) | > 100 µM (inactive) | > 100 µM (inactive) | > 100 µM (inactive) | > 100 µM (inactive) | > 100 µM (inactive) | > 100 | > 100 µM (inactive) | > 100 µM (inactive) | > 100 µM (inactive) | > 100 µM (inactive) | > 100 µM (inactive) | > 100 µM (inactive) | > 100 µM (inactive) | > 100 µM (inactive) | > 100 µM (inactive) | > 100 µM (inactive) | > 100 µM (inactive) |  |
| COc1ccc2[nH]c(C(O)(Cc3cccnc3)Cc3cccnc3)cc2c1 | > 100 µM (inactive) | > 100 µM (inactive) | > 100 µM (inactive) | > 100 µM (inactive) | > 100 µM (inactive) | > 100 µM (inactive) | > 100 µM (inactive) | > 100 |  |  | > 100 µM (inactive) |  | > 100 µM (inactive) | > 100 µM (inactive) | > 100 µM (inactive) | > 100 µM (inactive) | > 100 µM (inactive) | > 100 µM (inactive) | > 100 µM (inactive) | > 100 µM (inactive) |
| COc1ccccc1NC(=S)Nc1cc(C)ccn1 | > 100 µM (inactive) | > 100 µM (inactive) | 66.8 µM (inactive) |  | > 100 µM (inactive) | > 100 µM (inactive) | > 100 µM (inactive) | > 100 | > 100 µM (inactive) | > 100 µM (inactive) | > 100 µM (inactive) | > 100 µM (inactive) | 20 µM (inactive) | > 100 µM (inactive) | > 100 µM (inactive) | > 100 µM (inactive) | > 100 µM (inactive) | > 100 µM (inactive) | > 100 µM (inactive) |  |
| COc1cc2c(cc1OCCCC(=O)Nc1cc(C(=O)NCCCN(C)C)n(C)n1)N=CC1CCCN1C2=O (stereo unspecified) | 8.63 µM (inactive) | 9.75 µM (inactive) | > 20.8 µM (inactive) | 11.1 µM (inactive) | 10.5 µM (inactive) | 0.123 µM (active) | > 47.4 µM (inactive) | 8.55 |  | 9.04 µM (inactive) | 8.65 µM (inactive) | 5.37 µM (inactive) | 19.7 µM (inactive) | 10.1 µM (inactive) | > 33.5 µM (inactive) | 11 µM (inactive) | 7.85 µM (inactive) |  | 5.68 µM (inactive) | 6.56 µM (inactive) |
| CC1(C)C(=O)C2(OS(=O)(=O)C(F)(F)F)CCC1C2 (stereo unspecified) | > 100 µM (inactive) | > 100 µM (inactive) | > 100 µM (inactive) | > 100 µM (inactive) | > 100 µM (inactive) | > 100 µM (inactive) | > 100 µM (inactive) | > 100 | > 100 µM (inactive) | > 100 µM (inactive) | > 100 µM (inactive) |  | > 100 µM (inactive) | > 100 µM (inactive) | > 100 µM (inactive) | > 100 µM (inactive) | > 100 µM (inactive) | > 100 µM (inactive) | > 100 µM (inactive) | > 100 µM (inactive) |
| COC(=O)C1=C(C)C=C(N2CCOCC2)C(C(=O)OC)C1c1ccccc1 (stereo unspecified) | > 10 µM (inactive) | > 10 µM (inactive) | > 10 µM (inactive) | > 10 µM (inactive) | > 10 µM (inactive) | > 10 µM (inactive) | > 10 µM (inactive) | > 10 |  | > 10 µM (inactive) | > 10 µM (inactive) | > 10 µM (inactive) | > 10 µM (inactive) | > 10 µM (inactive) | > 10 µM (inactive) | > 10 µM (inactive) | > 10 µM (inactive) | > 10 µM (inactive) | > 10 µM (inactive) | > 10 µM (inactive) |
| Nc1ncc2ncn(C3CCC(CO)O3)c2n1 (stereo unspecified) | > 100 µM (inactive) | > 100 µM (inactive) | > 100 µM (inactive) |  | > 100 µM (inactive) | > 100 µM (inactive) | > 100 µM (inactive) | > 100 | > 100 µM (inactive) | > 100 µM (inactive) | > 100 µM (inactive) | > 100 µM (inactive) | > 100 µM (inactive) | > 100 µM (inactive) | > 100 µM (inactive) | > 100 µM (inactive) | > 100 µM (inactive) | > 100 µM (inactive) | > 100 µM (inactive) |  |
| CC(=O)c1c2c(cc3c1CCC3)CCC2 | > 100 µM (inactive) | > 100 µM (inactive) | > 100 µM (inactive) | > 100 µM (inactive) | > 100 µM (inactive) | 20.7 µM (inactive) | 63.5 µM (inactive) | > 100 | > 100 µM (inactive) | > 100 µM (inactive) | 54.5 µM (inactive) | > 100 µM (inactive) | > 100 µM (inactive) | > 100 µM (inactive) | > 100 µM (inactive) | 76.6 µM (inactive) | > 100 µM (inactive) | 82 µM (inactive) | > 100 µM (inactive) |  |
| c1ccc2cc(OCC3CO3)c(OCC3CO3)cc2c1 (stereo unspecified) | 1.91 µM (inactive) | 1.45 µM (inactive) | 1.43 µM (inactive) |  | 11.4 µM (inactive) | 3.73 µM (inactive) | 11.4 µM (inactive) | 4.63 | 1.53 µM (inactive) | 2.65 µM (inactive) | 2.37 µM (inactive) | 1.87 µM (inactive) | 14.5 µM (inactive) | 0.388 µM (active) | 4.05 µM (inactive) | 3.89 µM (inactive) | 4.84 µM (inactive) |  | 9.23 µM (inactive) | 8.55 µM (inactive) |
| Cn1c2ccccc2c(=S)c2cc(NC(=O)CCCCC(=O)Nc3ccc4c(c3)c(=S)c3ccccc3n4C)ccc21 | > 100 µM (inactive) | > 100 µM (inactive) | 54.7 µM (inactive) | > 100 µM (inactive) | > 100 µM (inactive) | > 100 µM (inactive) | > 100 µM (inactive) | > 100 |  | > 100 µM (inactive) | > 100 µM (inactive) | > 100 µM (inactive) | 65.9 µM (inactive) | > 100 µM (inactive) | > 100 µM (inactive) | > 100 µM (inactive) | 54 µM (inactive) | > 100 µM (inactive) | > 100 µM (inactive) | > 100 µM (inactive) |
| CC(C)c1cc(Cl)nc(Cl)n1 | > 100 µM (inactive) | > 100 µM (inactive) |  | > 100 µM (inactive) | > 100 µM (inactive) | > 100 µM (inactive) | > 100 µM (inactive) | > 100 | > 100 µM (inactive) | > 100 µM (inactive) | > 100 µM (inactive) | > 100 µM (inactive) | > 100 µM (inactive) | > 100 µM (inactive) | > 100 µM (inactive) | > 100 µM (inactive) | > 100 µM (inactive) | > 100 µM (inactive) | > 100 µM (inactive) |  |
| ONCCCn1cnc2c(NC3CC3)ncnc21 | > 100 µM (inactive) | > 100 µM (inactive) | > 100 µM (inactive) | > 100 µM (inactive) | > 100 µM (inactive) | > 100 µM (inactive) | > 100 µM (inactive) | > 100 |  | > 100 µM (inactive) | > 100 µM (inactive) | > 100 µM (inactive) | > 100 µM (inactive) | > 100 µM (inactive) | > 100 µM (inactive) | > 100 µM (inactive) | > 100 µM (inactive) | > 100 µM (inactive) | > 100 µM (inactive) | > 100 µM (inactive) |
| COc1cc(-c2coc3c(OC)c(OC4OC(COC5OC(C)C(O)C(O)C5O)C(O)C(O)C4O)c(OC)c(O)c3c2=O)cc(C)c1O (stereo unspecified) | 12.7 µM (inactive) | 13.9 µM (inactive) | 22.1 µM (inactive) | 16.1 µM (inactive) | 21.7 µM (inactive) | 13.4 µM (inactive) | 17.2 µM (inactive) | 16.4 |  | 21.3 µM (inactive) | 16.6 µM (inactive) | 12.7 µM (inactive) | 32.5 µM (inactive) | 12.3 µM (inactive) | 17.9 µM (inactive) | 20.7 µM (inactive) | 16 µM (inactive) |  | 12.6 µM (inactive) | 19.2 µM (inactive) |
| c1ccc([P+](CCSCCSCC[P+](c2ccccc2)(c2ccccc2)c2ccccc2)(c2ccccc2)c2ccccc2)cc1 | > 100 µM (inactive) | > 100 µM (inactive) | > 100 µM (inactive) | > 100 µM (inactive) | > 100 µM (inactive) | 53.5 µM (inactive) | > 100 µM (inactive) | > 100 | > 100 µM (inactive) | > 100 µM (inactive) | > 100 µM (inactive) |  | > 100 µM (inactive) | 40.5 µM (inactive) | > 100 µM (inactive) | > 100 µM (inactive) | > 100 µM (inactive) | > 100 µM (inactive) | > 100 µM (inactive) | > 100 µM (inactive) |
| O=C(O)c1cc(NCc2cc(O)ccc2O)ccc1O [LAVENDUSTIN C] | 23.8 µM (inactive) | > 100 µM (inactive) | > 100 µM (inactive) | > 100 µM (inactive) | > 100 µM (inactive) |  | > 100 µM (inactive) | > 100 |  | > 100 µM (inactive) | 67.1 µM (inactive) | 16.2 µM (inactive) | > 100 µM (inactive) | > 100 µM (inactive) | > 100 µM (inactive) | > 100 µM (inactive) | > 100 µM (inactive) | > 100 µM (inactive) | > 100 µM (inactive) | > 100 µM (inactive) |
